In US10717758B2, “D-amino acid compounds for liver disease” (priority 2012, dated 2020):

Tests used:
fresh human hepatocytes = test: Release of active metabolite in primary hepatocytes (human); format: in vitro ADME; settings: 10 μM
Method: (§1) Plates of fresh human and mouse hepatocytes were obtained on ice. The medium was removed and replaced with hepatocyte culture medium (William's E supplemented with penicillin-streptomycin, 1% L-glutamine, 1% insulin-transferrin-selenium and 0.1 μM Dexamethasone (Invitrogen) or with Invitro GRO HI medium complemented with Torpedo antibiotics (Celsis)). Cells were left overnight in an incubator at 37° C. to acclimatize to culture and the medium.
Hepatocyte incubations were conducted at a final volume of 0.5 mL hepatocyte culture medium/well (0.8 million cells/well for human and 0.5 million cells/well for mouse; 12 well plate no overlay, collagen coat). Culture medium from overnight incubation of cells was removed and replaced with fresh medium, pre-warmed to 37° C., containing 10 μM of test compound from a stock solution in DMSO (final DMSO concentration was 0.1%). At each specific time point, incubation medium was removed and cell monolayers were carefully washed two times with ice-cold PBS. Following the last wash, all PBS was carefully removed and 1.0 mL of extraction solution (ice-cold 70% methanol/30% water) added. Cells were scraped off and suspended in the extraction solution, transferred to 2 mL polypropylene microfuge tubes and intracellular contents extracted overnight at −20° C. […]

Zluc cells = test: Cytotoxicity evaluation in Zluc cells (CellTiter-Blue); format: cell-based, human; settings: read-out: HCV Replicon CC50
Method: For cytotoxicity evaluation, Zluc cells were treated with compound as described herein, and cell viability was monitored using the CellTiter-Blue Cell Viability Assay (Promega) by adding 20 μL of the assay solution to each well. The plates were then incubated at 37° C./5% CO2 for at least 3 hours.

HCV genotype 1b replicon = test: HCV replicon assay; format: cell-based; settings: Hepatitis C virus, 72 h, Zluc (Huh-7-derived) cells, luciferase reporter, 72 hours; read-out: HCV Replicon EC50
Method: Huh-7-derived cell line (Zluc) that harbors an HCV genotype 1b replicon and a luciferase reporter gene was grown in Dulbecco's Modified Eagle Medium (DMEM) supplemented with 10% fetal bovine serum, 2 mM GlutaMAX, 1% MEM nonessential amino acids, 100 IU/mL penicillin, 100 μg/mL streptomycin, and 0.5 mg/mL Geneticin® (G418). For dose response testing the cells were seeded in 96-well plates at 7.5×10^3 cells per well in a volume of 50 μL, and incubated at 37° C./5% CO2. Drug solutions were made up freshly in Huh-7 media as 2× stocks. Ten additional 5-fold dilutions were prepared from these stocks in DMEM without G418. At least three hours after Zluc cells were seeded, drug treatment was initiated by adding 50 μL of drug dilutions to the plates in duplicate. Final concentrations of drug ranged from 100 μM to […]. Cells were then incubated at 37° C./5% CO2. Alternatively, compounds were tested at two concentrations (1 μM and 10 μM). […] For this, media was removed from the plates via gentle tapping. Fifty microliters of ONE-glo luciferase assay reagent was added to each well. The plates were shaken gently for 3 min at room temperature and luminescence was measured on a Victor^3 V 1420 multilabel counter (Perkin Elmer) with a 1 second read time using a 700 nm cut-off filter. The EC50 values were calculated from dose response curves from the resulting best-fit equations determined by Microsoft Excel and XLfit 4.1 software. When screening at two fixed concentrations, the results were expressed as % inhibition at 1 μM and 10 μM.

fresh mouse hepatocyte = test: Release of active metabolite in primary hepatocytes (mouse); format: in vitro ADME; settings: 10 μM
Method: as §1
Hepatocyte incubations were conducted at a final volume of 0.5 mL hepatocyte culture medium/well (0.8 million cells/well for human and 0.5 million cells/well for mouse; 12 well plate no overlay, collagen coat). Culture medium from overnight incubation of cells was removed and replaced with fresh medium, pre-warmed to 37° C., containing 10 μM of test compound from a stock solution in DMSO (final DMSO concentration was 0.1%). At each specific time point, incubation medium was removed and cell monolayers were carefully washed two times with ice-cold PBS. Following the last wash, all PBS was carefully removed and 1.0 mL of extraction solution (ice-cold 70% methanol/30% water) added. Cells were scraped off and suspended in the extraction solution, transferred to 2 mL polypropylene microfuge tubes and intracellular contents extracted overnight at −20° C.
After the overnight treatment the cellular extracts were prepared by centrifugation at 16,000×g for 10 min to remove cellular debris. The remaining sample was then dried using a refrigerated centrivap concentrator. Dry extracts were reconstituted in 1000 μL of HPLC-grade water and centrifuged at 16,000×g for 10 min. Aliquots (100 μL each) of the supernatant were transferred into a 96 well plate and internal standard (4 ng/mL final concentration) was added as the internal standard (IS) for LC-MS/MS analysis.
The incubation time points were 6, 24 and 48 hours for human hepatocytes and 1, 4, 8, 12 and 24 hours for mouse hepatocytes.

Huh-7 cells = test: Release of active metabolite in Huh-7 cells; format: in vitro ADME, human
Method: Huh-7 cells were plated in 1 mL culture medium (DMEM, containing glucose, L-glutamine and sodium pyruvate, 10% FBS, 100 IU/mL penicillin, 100 μg/mL streptomycin, 2 mM GlutaMAX, 1% MEM non-essential amino acids) at the concentration 0.8, 0.4 and 0.2 million cells per well on 6 well plates for 24, 48 and 72 hr treatment, respectively. Plated cells were incubated overnight at 37° C. in an incubator.
The following morning test compound was diluted to 20 μM from a stock solution in DMSO in fresh culture medium pre-warmed to 37° C. and 1 mL of the solution/well was added to cells. A final medium volume per well was 2.0 mL, test compound concentration in well was 10 μM and final DMSO concentration was 0.1%.
After 24, 48 or 72 hr, the medium was carefully removed and cell monolayers were washed twice with 2 mL ice-cold PBS per well. Following the last wash, all PBS was carefully removed and 1.0 mL of extraction solution (ice-cold 70% methanol) added. The plate was tightly covered with Parafilm, plastic plate cover and Parafilm again and an intracellular content was extracted at −20° C. for 24 hr.
After 24 hr the extracts were transferred into polypropylene microfuge tubes and dry on a refrigerated centrivap concentrator. Dry residues were reconstituted in 250 μL of HPLC-grade water and centrifuged at 16,000×g for 10 min. Aliquots (100 μL each) of the supernatants were transferred into a 96 well plate and internal standard (4 ng/mL final concentration) was added as the internal standard (IS) for LC-MS/MS analysis.

[1] = Plasma and liver PK after single oral dose (Example 4C); format: in vivo, CD-1 mice; settings: at 1 μmol/kg; single oral dose 10 mg/kg for 804a or 25 mg/kg for 804b
Method: Plasma samples were analyzed for 2′-methyl-2′-fluorouridine (2′-Me-2′-F-U) by LC-MS/MS. The internal standard (IS) was D3-2′-F-2′-Me-G. For protein precipitation and extraction, each plasma sample (50 μL) was treated with 500 μL of 0.2% formic acid in acetonitrile and 20 μL of the internal standard working solution. After vortexing and centrifugation, 500 μL of the sample extracts were transferred to a new plate, dried under N2 at ˜28° C. and reconstituted with 75 μL of 0.2% FA in water. The extracts were chromatographed on an Aquasil C18 column using a gradient system of 0.2% formic acid in water and acetonitrile. The analytes were detected and quantified by tandem mass spectrometry in positive ion mode on an MDS Sciex API5000 equipped with a Turbo Ionspray® interface. The calibration range was 0.500 (LLOQ) to 200 ng/mL in mouse plasma. The corresponding range for molar units is 1.92 to 769 pmol/mL.
Liver samples were analyzed for the active species 2′-methyl-2′-fluorouridine triphosphate (2′-Me-2′-F—U TP) by LC-MS/MS. […] Internal standard solution was added to the homogenate followed by neutralization with 20% ammonium hydroxide solution and addition of 500 μL 1% formic acid. The tissue samples were extracted by weak anion exchange solid phase extraction (SPE). […]

cathepsin A (CatA) = target: T1, cathepsin A (CatA) (Homo sapiens, UniProt P10619); test: Hydrolysis of prodrugs by Cathepsin A; format: in vitro ADME
T1 sequence (P10619 29-326 limits assumed): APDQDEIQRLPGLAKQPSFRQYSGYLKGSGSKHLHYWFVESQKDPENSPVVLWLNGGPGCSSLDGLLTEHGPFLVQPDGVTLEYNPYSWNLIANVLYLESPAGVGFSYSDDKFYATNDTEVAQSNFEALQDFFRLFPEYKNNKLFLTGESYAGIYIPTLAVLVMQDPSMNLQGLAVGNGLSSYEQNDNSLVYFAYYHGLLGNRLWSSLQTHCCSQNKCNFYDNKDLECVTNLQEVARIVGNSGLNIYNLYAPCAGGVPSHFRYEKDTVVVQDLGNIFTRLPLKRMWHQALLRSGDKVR
T1 sequence (P10619 327-480 limits assumed): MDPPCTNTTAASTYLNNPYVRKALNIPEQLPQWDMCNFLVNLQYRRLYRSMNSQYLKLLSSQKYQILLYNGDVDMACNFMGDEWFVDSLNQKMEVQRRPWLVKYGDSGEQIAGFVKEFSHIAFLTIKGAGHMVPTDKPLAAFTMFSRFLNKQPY
Method: CatA, cathepsin L (CatL) and CES1 were purchased from R & D Systems (Minneapolis, Minn.). Prior to the enzymatic hydrolysis reactions, CatA was activated according to the manufacturer's instruction. Briefly, CatA (0.05 μg/μL) was incubated with CatL (0.005 μg/μL) for 30 min at 37° C. in 25 mM MES pH 6.0 containing 5 mM DTT. The reaction was stopped by addition of the CatL specific inhibitor E64 (10 μM).
The CatA assay was performed at 37° C. The reaction mixture contained 25 mM MES buffer pH 6.0, 100 mM NaCl, 4 mM DTT and 100 μM of the compound. The reaction was started by addition of the activated CatA enzyme to a final concentration of 0.005 μg/μL. […] Reactions were stopped by mixing the sample with an equal volume of ice-cold methanol, and were loaded on a HPLC for analysis.

[2] = Liver TP formation and liver targeting in vivo (Example 6, Table 7); set-up: species or system mice and monkey
Excerpt: The in vitro antiviral inactivity of Z4 and Z2 is thought to reflect an inability of Huh-7 replicon cells to metabolize the prodrug moiety.

| Hydrolysis by CatA (cathepsin A (CatA)) | CatA hydrolysis (cathepsin A (CatA); @ 18 h, 100 μM compound, 37° C., pH 6.0) | Liver TP [2] | Huh-7 AUC0-72 (Huh-7 cells; Table 7) | Compound | FHH TP AUC (fresh human hepatocytes) | FHH TP Cmax (fresh human hepatocytes) | CC50 (Zluc cells) | EC50 (HCV genotype 1b replicon) | MsH AUC (fresh mouse hepatocyte) | MsH Cmax (fresh mouse hepatocyte) | Huh-7 TP AUC (Huh-7 cells; 10 μM test compound) | Huh-7 TP Cmax (Huh-7 cells; 10 μM test compound) | Ms Plasma 2′-Me-2′-F-U AUC [1] |
| --- | --- | --- | --- | --- | --- | --- | --- | --- | --- | --- | --- | --- | --- |
|  |  |  |  | CC(C)OC(=O)[C@H](C)NP(=O)(OC[C@H]1O[C@@H](n2ccc(=O)[nH]c2=O)[C@](C)(Cl)[C@@H]1O)Oc1ccccc1 (single isomer, unassigned) [40ii Diastereomer 2] | 4934 pmol.hr/mill cells | 197 pmol/mill cells | > 50 µM | 0.25 to 1 µM | 1794 pmol.hr/mill cells | 87 pmol/mill cells | 14544 pmol.hr/mill cells | 294 pmol/mill cells |  |
|  |  |  |  | CC(C)OC(=O)[C@H](C)N[P@](=O)(OC[C@H]1O[C@@H](n2ccc(=O)[nH]c2=O)[C@](C)(F)[C@@H]1O)Oc1ccccc1 [GS-7977] |  |  |  |  |  |  |  |  | 0.00115 M·s |
| hydrolyzed | 10% | 310 pmol·h/g | 6527 pmol*hr/10^6cells | CC(C)OC(=O)[C@H](C)N[P@@](=O)(OC[C@H]1O[C@@H](n2ccc(=O)[nH]c2=O)[C@](C)(F)[C@@H]1O)Oc1ccccc1 [PSI-7976, reference compound] |  |  |  |  |  |  |  |  | 0.00115 M·s |
